The source of these data is the METLIN SMRT retention time set (Domingo-Almenara et al. 2019).

This data set is described as follows: gradient 5% acetonitrile 3 min, to 50% in 2 min, to 85% in 15 min, held 3 min, 100 µL/min. Particulars: column: Zorbax Extend-C18 2.1 x 50 mm; eluents: water / acetonitrile, 0.1% formic acid. Put shortly: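 Retention times of pure standards were taken from adduct peaks that were selected by computer and manually inspected. Over 3 months, mixtures of ~100 molecules were run by HPLC–quadrupole time-of-flight mass spectrometry in positive and negative ionization mode. The Zorbax Extend-C18 column (2.1 × 50 mm, 1.8 μm) ran at 100 μL/min in water and acetonitrile, each containing 0.1% formic acid, with 40 μL dead volume and 900 μL dwell volume.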
In turn, `CC(=O)N1CCc2cc(N3CC(C(=O)Nc4cccc(Cl)c4)CC3=O)ccc21` (stereo not given) displayed an RP-LC retention time of 738 s.

In the case of `COc1ccc(OC)c(NC(=O)N2CCC3(CC2)NC(=O)c2ccccc2O3)c1`, the RP-LC retention time came to 740 s.

`C[C@H](N)C(=O)N[C@@H](C)C(=O)N[C@@H](Cc1ccccc1)C(=O)CCl` registered an RP-LC retention time of 638 s.

Regarding `COc1ccc(-c2nc(-c3cccc(-c4ccnn4C)c3)no2)cc1`, the RP-LC retention time came to 1120 s.

In turn, `O=C(c1n[nH]c(=O)c2ccccc12)N1CCCC1c1nc(CCOCC2CCCC2)no1` (stereo not given) showed an RP-LC retention time of 848 s.

`Cc1ccccc1Nc1c(-c2cccc(Cl)c2)nc2ccccn12` registered an RP-LC retention time of 787 s.

Compound `COc1ccccc1/C=C/c1nc(-c2cccc(-c3ccn[nH]3)c2)no1` had an RP-LC retention time of 976 s.

With `COc1cc(NC(=O)CN2CCN(c3ccccn3)CC2)cc(OC)c1`, the RP-LC retention time was 587 s.

Consider `Cc1cc(N2CCN(S(=O)(=O)c3cc(F)ccc3F)CC2)nc(N2CCCCC2)n1`, for which the RP-LC retention time is 769 s.

The compound `CCCCC1CCC(C(=O)Nc2nc(-c3ccc4c(c3)NC(=O)CO4)cs2)CC1` (stereo not given) showed an RP-LC retention time of 934 s.

`Cc1ccccc1CNC1=NCCNC12CCN(S(=O)(=O)c1ccccc1C)CC2` came in with an RP-LC retention time of 729 s.

`CCn1c(=O)c(N2CCN(C(=O)Nc3cc(F)ccc3F)CC2)nc2ccccc21` returned an RP-LC retention time of 997 s.

`O=S(=O)(Nc1ccc(Cn2cncn2)cc1)c1cccc(Cl)c1` had an RP-LC retention time of 716 s.

Compound `CCN1CCCn2cc(S(=O)(=O)NCCCc3ccccc3)cc2C1=O` displayed an RP-LC retention time of 785 s.

As to `CCN1CCN(CC2CCN(S(=O)(=O)Cc3c(F)cccc3Cl)CC2)CC1`, the RP-LC retention time stood at 611 s.

`COCC(=O)N1CC(c2nc(-c3ccc(F)cc3)no2)C2(CCOCC2)C1` (stereo not given) registered an RP-LC retention time of 731 s.

`O=C(Nc1ccc(Cn2cnc(C(=O)NCc3ccc(F)cc3)c2)cc1)c1cccc(F)c1` showed an RP-LC retention time of 769 s.

On to `CC(C)n1cnnc1-c1nn(C)c2c1CN(C(=O)CC1CCCC1)CC2`, for which the RP-LC retention time came to 732 s.

In the case of `Cc1nc(-c2ccc(-c3noc(-c4ccncc4)n3)cc2)cs1`, the RP-LC retention time turned out to be 1050 s.

Take `COc1cccc(C2Cn3nnc(-c4nc(-c5cccc(C(F)(F)F)c5)no4)c3CO2)c1` (stereo not given): the RP-LC retention time stood at 1270 s.

The compound `COC(=O)c1ccc(NS(=O)(=O)c2cc3n(c2)CCN(C)C3=O)cc1` returned an RP-LC retention time of 682 s.

On to `O=C1NCCCCCCN(C(=O)Nc2ccc3c(c2)OCCO3)[C@H]2CCC[C@@H]12`, for which the RP-LC retention time was 749 s.

In the case of `Cc1cc(C)cc(Nc2c(-c3ccc(N4CCOCC4)cc3)nc3cnccn23)c1`, the RP-LC retention time was determined as 895 s.

On to `CCN(CC)CCn1c(NCc2ccccc2OC)nc2ccccc21`, for which the RP-LC retention time stood at 1130 s.

In turn, `COc1ccc(NC(=O)Nc2nc(CCC(=O)O)cs2)cc1` yielded an RP-LC retention time of 647 s.

`Cc1ccc2[nH]cc(CCN3CC(C(=O)Nc4nnc(CC(C)(C)C)s4)CC3=O)c2c1` (stereo not given) showed an RP-LC retention time of 864 s.

For the compound `COc1cccc(-c2nnc(-c3ccc(-n4ccnc4)nc3)o2)c1`, the RP-LC retention time came out at 654 s.

For `Cn1cc(CCN2CCC(C(=O)NC3CCCCCC3)CC2)c2cccnc21`, the RP-LC retention time was found to be 616 s.

Turning to `Clc1ccc(C(Cn2ccnc2)OCc2csc3c(Cl)cccc23)c(Cl)c1` (stereo not given), the RP-LC retention time was 974 s.

Take `CCCN1CCN(c2ncc3c(n2)CCN(Cc2ccccc2OCC)C3)CC1`: the RP-LC retention time came to 565 s.

`FC(F)(F)c1cccc(N2CCN(c3ncnc4sccc34)CC2)c1` showed an RP-LC retention time of 987 s.

`Cn1ccc(C(=O)N2CC(n3cc(COc4ccc(F)cc4)nn3)C2)n1` displayed an RP-LC retention time of 722 s.

In turn, `Cc1ccc(NC(=O)N2CCCC(C)(C(=O)NCc3ccccc3C)C2)cc1Cl` (stereo not given) returned an RP-LC retention time of 1080 s.

As for `CCCNS(=O)(=O)c1cc2n(c1)CCCN(CC)C2=O`, the RP-LC retention time was determined as 642 s.

On to `COc1ccc(-c2csc(NC(=O)c3ccc4c(c3)OCCO4)n2)cc1OC`, for which the RP-LC retention time turned out to be 963 s.

For `COc1ccc(Cl)cc1NC(=O)COc1cc(C)nc(N2CCCC2)n1`, the RP-LC retention time is 613 s.

Take `Cc1nc(-c2cc3cccc(C)c3nc2N2CCN(c3ccccc3F)CC2)no1`: the RP-LC retention time worked out at 733 s.

In the case of `O=C1NC2(CCN(C(=O)c3ccc(F)cc3)CC2)N=C1c1ccc(Cl)cc1`, the RP-LC retention time was found to be 872 s.

`O=C(NC1CC1)C1CCN(c2nc3ccsc3c(=O)n2Cc2ccc(F)cc2)CC1` gave an RP-LC retention time of 768 s.

The compound `CCn1cc(-c2nc(CC(=O)Nc3ccc(Cl)cc3)cs2)c2cccnc21` returned an RP-LC retention time of 996 s.

In turn, `COC[C@@H]1CN(Cc2ccc(OC)cc2OC)C[C@H]1c1ccncc1` showed an RP-LC retention time of 590 s.

Take `CCCCN1CCN(c2ccc(-c3csc(S(=O)(=O)N4CCCCC4)c3)nn2)CC1`: the RP-LC retention time worked out at 686 s.

In turn, `O=C(NCCCN1CCCC1=O)c1cc2c(s1)CCN(C(=O)c1ccc(F)cc1)C2` showed an RP-LC retention time of 670 s.

Regarding `COc1ccc(N2CCN(S(=O)(=O)c3cc(-c4nnc(C5CC5)o4)co3)CC2)cc1`, the RP-LC retention time stood at 909 s.

In the case of `CN(CCO)c1cc(N2CCN(c3ccccn3)CC2)c2noc3c2c1C(=O)c1ccccc1-3`, the RP-LC retention time amounted to 614 s.

Turning to `COC(=O)C1=CN(c2cc(OC)cc(OC)c2)c2ccccc2S1(=O)=O`, the RP-LC retention time stood at 848 s.

Consider `Cc1cccc(Cl)c1NC(=O)CN1C(=O)NC2(CCC(C)CC2)C1=O` (stereo not given), for which the RP-LC retention time was 805 s.

As to `Cc1ccc(N2CCC(NC(=O)c3ccc(Br)o3)C2=O)cc1C` (stereo not given), the RP-LC retention time turned out to be 882 s.

Compound `CCn1ccc2c(cc(C(=O)Nc3ccc(OC)c(Cl)c3)n2C)c1=O` returned an RP-LC retention time of 1330 s.

As for `COc1ccc(CNC(=O)c2cn3cc(C)ccc3n2)cc1OC`, the RP-LC retention time was 614 s.

Take `CC(Cc1cccs1)NC(=O)c1cnccn1` (stereo not given): the RP-LC retention time came out at 706 s.

In turn, `O=C(Cc1cccs1)NCc1cccnc1Oc1ccccc1` came in with an RP-LC retention time of 853 s.

Compound `Cn1nc(CN(C(=O)c2ccccc2F)c2ccccc2)c2c1CCN(S(C)(=O)=O)C2` yielded an RP-LC retention time of 779 s.

With `Cc1ccc(CNC(=O)C2(C)Cn3nc(C(=O)NC4CCCCC4)cc3C(=O)N2C)cc1` (stereo not given), the RP-LC retention time turned out to be 800 s.

For the compound `O=C(Cn1ccn2nc(-c3ccccc3)c(CO)c2c1=O)Nc1ccc2c(c1)OCCO2`, the RP-LC retention time was 759 s.

Consider `CCN1C(=O)C(CC(=O)N2CCCC2)Sc2ncccc21` (stereo not given), for which the RP-LC retention time is 654 s.

`CCOC(=O)c1ccccc1NC(=O)CCCn1nc(-c2ccc(F)cc2)ccc1=O` registered an RP-LC retention time of 922 s.

Consider `CCc1cc(C(=O)N2CCN(CC)CC2)nc2cc(-c3cccs3)nn12`, for which the RP-LC retention time worked out at 646 s.

As for `COc1ccc(C2(C(=O)N3CC(N(Cc4ccncc4)S(C)(=O)=O)C3)CC2)cc1`, the RP-LC retention time turned out to be 613 s.

Compound `CCOC(=O)COc1cc(-c2ccc(C)cc2)nc2ccc(NC(=O)C3CCCC3)cc12` came in with an RP-LC retention time of 854 s.

`Cc1nc([C@@H]2CN(C(=O)CCc3nc4ccccc4[nH]3)C[C@H]2C(N)=O)n[nH]1` had an RP-LC retention time of 506 s.

`Cc1sc(-c2nnc(C3CC3)o2)cc1NC(=O)Cc1ccc(F)cc1` returned an RP-LC retention time of 956 s.

With `COc1ccccc1-c1csc(NC(=O)Cc2csc(C)n2)n1`, the RP-LC retention time turned out to be 881 s.

Compound `Cn1c(=O)n([C@H]2CCN(S(=O)(=O)c3ccc(F)cc3)C2)c2ncccc21` displayed an RP-LC retention time of 805 s.

As to `CC1CCC(NC(=O)c2nnn(Cc3ccc(F)cc3)c2-n2cccc2)CC1` (stereo not given), the RP-LC retention time came out at 1160 s.

`Cc1cnc(C(=O)N2CC(c3nc(CCOC4CCCC4)no3)C2)cn1` had an RP-LC retention time of 777 s.

`Cc1nc([C@@H]2CN(C(=O)CCc3nc4ccccc4s3)C[C@H]2C(N)=O)n[nH]1` gave an RP-LC retention time of 599 s.

Turning to `CC(C)n1cc(S(=O)(=O)Nc2ccc(F)c(F)c2)c2cccnc21`, the RP-LC retention time was 936 s.

With `Cc1ccc(Sc2nccnc2N2CCCC(C(=O)NC3CCCCC3)C2)cc1` (stereo not given), the RP-LC retention time is 1150 s.

For `Cc1ncoc1C(=O)N1CCC(c2noc(-c3cnccn3)n2)C1` (stereo not given), the RP-LC retention time is 620 s.

On to `CCOc1ccccc1C(=O)N1CCN(c2cc(-c3cccs3)[nH]n2)CC1`, for which the RP-LC retention time turned out to be 781 s.

`COC(=O)c1ccccc1Sc1c(-c2ccccc2)nc2ncccn12` had an RP-LC retention time of 875 s.

`Cn1nc(C(=O)Nc2ccccc2)c2c1CCN(C(=O)Nc1ccc(Br)cc1F)C2`: the RP-LC retention time was 956 s.

`Cc1cc2[nH]c(C(=O)Nc3cc(F)cc(F)c3)c(CN3CCOCC3)c2s1`: the RP-LC retention time was 738 s.

`COCCCNC(=O)C1c2ccccc2C(=O)N1Cc1ccccc1` (stereo not given) returned an RP-LC retention time of 704 s.

The compound `CN(C)C(=O)c1ccc2c(c1)N(CC(=O)NCc1ccc(Cl)cc1)C(=O)C1CCCCN21` (stereo not given) came in with an RP-LC retention time of 792 s.

In the case of `O=C(NCC(O)c1ccc(C(F)(F)F)cc1)C(=O)Nc1ccc(F)cc1F` (stereo not given), the RP-LC retention time stood at 880 s.

`CCNC(=O)NCc1nc(-c2ccc(Cl)cc2)no1` displayed an RP-LC retention time of 752 s.

As to `CN1CCN(c2nc(C3=C(c4c[nH]c5ccccc45)C(=O)NC3=O)c3ccccc3n2)CC1`, the RP-LC retention time was 674 s.

In turn, `O=C(c1ccccc1)N1C[C@H]2CNC(=O)[C@]23CCCC[C@@H]13` yielded an RP-LC retention time of 662 s.
